Laboratory results published in patent US7087622B2, “Pyridone compounds as inhibitors of bacterial type III protein secreation systems” (priority 2004, dated 2006).
pIC50: −log10 of the molar value.

Tests used:
Assay type in all cases: cell-based
[1] = system: type III protein secretion system of P. aeruginosa PA103 (ExoU secretion); assay: Tertiary assay: Type III-dependent secretion of ExoU by P. aeruginosa PA103 (SDS-PAGE band quantitation); conditions: Pseudomonas aeruginosa, ExoU secreted into extracellular medium
Text: Tertiary assay: inhibition of Type III protein secretion of effectors from a Pseudomonas aeruginosa system. Type III protein secretion is used by P. aeruginosa to secrete several essential virulence determinants. One effector of the type III protein secretion system of P. aeruginosa PA103 is the virulence determinants ExoU.
The amount of Type III-dependent secretion of ExoU by P. aeruginosa PA103 can be determined in a cell-based assay by quantification of the 73.9 kDa ExoU protein secreted into the extracellular medium. Such quantitation can be achieved by growing strain PA103 in a deferrated medium in the presence of nitrilotriacetic acid (an inducer of Type III protein secretion in P. aeruginosa) and either in the presence or absence of putative inhibitors. After a prolonged growth period, the cells are sedimented and the supernatants concentrated by ammonium sulfate precipitation. The proteins in the resuspended pellets are separated by electrophoresis on SDS-polyacrylamide gels. After staining gels with Colloidal Blue™, the 73.9 kDa ExoU band is quantitated by scanning through an imager. The effects of inhibitors on the intensity of the ExoU band may be measured relative to that of untreated controls.

[2] = system: SPI1 type III protein secretion system (SopE-Bla secretion); assay: Primary assay: Type III protein secretion of the chimeric SopE-Bla polypeptide by Salmonella enterica (nitrocefin hydrolysis); conditions: read-out: SopE IC50(uM)
Text: Primary assay: Type III protein secretion of the chimeric SopÉ-Bla polypeptide by Salmonella enterica. This procedure is a cell-based assay that measures the type III-dependent secretion by Salmonella enterica of a plasmid-encoded chimeric polypeptide whose synthesis can be regulated, and which is endowed with an enzymatic activity that can be monitored calorimetrically by hydrolysis of a substrate that is unable to penetrate into the bacterial cytoplasm within the time constraints of the reaction. Thus, the colorimetric reaction is not influenced by SopÉ-Bla polypeptide in the bacterial cytoplasm. Instead, it effectively measures the amount of polypeptide that has been secreted from the S. enterica cytoplasm to the extracellular medium via type III system protein secretion.
The SopÉ-Bla recombinant polypeptide consists of two functionally distinct domains spliced together. The N-terminus domain is encoded by a polynucleotide region specifying the signal for type III secretion of the SopE polypeptide of S. enterica, an effector of the SPI1 type III protein secretion system. The C-terminus domain of SopÉ-Bla consists of a 263 amino acid peptide sequence that corresponds to the TEM-1 β-lactamase expressed by plasmid pBR322 but without its N-terminal signal sequence. The TEM-1 β-lactamase part of the SopÉ-Bla chimeric polypeptide is used as a reporter enzyme. It is capable of hydrolyzing nitrocefin resulting in a product whose accumulation can be monitored by colorimetric detection. The secretion of the SopÉ-Bla chimeric polypeptide from the cytoplasm to the extracellular medium is dependent on type III protein secretion.
For this procedure, cells grown under conditions known to favor a functional SPI1 secretion system are induced for expression of the SopÉ-Bla protein and grown either in the presence or in the absence of putative inhibitors for determined time. Nitrocefin is then added to the various cultures and its hydrolysis are used for quantitation. An inhibitor of Type III protein secretion is generally a compound that reduces the signal of the enzymatic reaction by decreasing the amount of SopÉ-Bla secreted into the extracellular medium.

[3] = system: SPI1 type III protein secretion system (SipB secretion); assay: Secondary assay: Type III-dependent protein secretion of the SipB polypeptide by S. enterica (immunoblot); conditions: Salmonella enterica, read-out: SipB IC50(uM)
Method: Secondary assay: Type III-dependent protein secretion of the SipB polypeptide by S. enterica. The SipB protein of S. enterica is another effector of the SPI1 type III protein secretion system from S. enterica. In this cell-based procedure, the Type III-dependent secretion of SipB from the bacterial cytoplasm to the extracellular medium was measured through its reactivity with a cognate mouse monoclonal.
Salmonella enterica cells growing either in the presence or in the absence of inhibitors are induced for the production of SipB. Following an established period of growth the cells are sedimented and the amount of SipB present in the supernatant is quantified with a scanning imager following application of immunoblot techniques. Detection may employ an anti-SipB mouse monoclonal antibody (e.g., obtained from Jorge Galan, SUNY at Stony Brook, N.Y.) followed by treatment with commercially available sheep anti-mouse polyclonal antibody conjugated with horseradish peroxidase. Thereafter the membrane is treated with a peroxidase chemiluminescent substrate and exposed to film for an appropriate exposure time. Inhibition may be measured relative to untreated controls.

Compound | pIC50 [1] | IC50 [2] [µM] | IC50 [3] [µM]
O=C(Nc1cc(-c2ccc(-c3ccccc3)cc2)cn(C(CSCc2ccccc2)C(=O)O)c1=O)c1ccc(C(F)(F)F)cc1 (stereo in doubt) [Compound 14, (R)-3-Benzylsulfanyl-2-[5-biphenyl-4-yl-2-oxo-3-(4-trifluoromethylbenzoylamino)-2H-pyridi-1-yl]propionic acid] | 4.50 | 31.3 | 7.1
O=C(Nc1cc(-c2ccc(Oc3ccccc3)cc2)cn(C(CSCc2ccccc2)C(=O)O)c1=O)c1ccc(C(F)(F)F)cc1 (stereo in doubt) [Compound 15, (R)-3-Benzylsulfanyl-2-[2-oxo-5-(4-phenoxyphenyl)-3-(4-trifluoromethyl-benzoylamino)-2H-pyridin-1-yl]propionic acid] | 4.08 | 9.1 | 67.9
O=C(Nc1cc(-c2cccc3ccccc23)cn([C@@H](Cc2ccccc2)C(=O)O)c1=O)c1ccc(C(F)(F)F)cc1 [Compound 1, (S)-2-[5-Naphthalen-1-yl-2-oxo-3-(4-trifluoromethylbenzoylamino)-2H-pyridin-1-yl]-3-phenylpropionic acid] | 4.08 | 14.4 | 82.8
O=C(Nc1cc(-c2ccc(Oc3ccccc3)cc2)cn([C@@H](Cc2ccccc2)C(=O)O)c1=O)c1ccc(C(F)(F)F)cc1 [Compound 4, (S)-2-[2-Oxo-5-(4-phenoxyphenyl)-3-(4-trifluoromethylbenzoylamino)-2H-pyridin-1-yl]-3-phenylpropionic acid] | 4.07 | 6.3 | 84.7
O=Cc1ccc(-c2cc(NC(=O)c3ccc(C(F)(F)F)cc3)c(=O)n([C@@H](Cc3ccccc3)C(=O)O)c2)cc1 [Compound 5, (S)-2-[5-(4-Formylphenyl)-2-oxo-3-(4-trifluoromethylbenzoylamino)-2H-pyridin-1-yl]-3-phenylpropionic acid] | < 4.00 | 49.9 | > 100
COC(=O)c1ccc(-c2cc(NC(=O)c3ccc(C(F)(F)F)cc3)c(=O)n([C@@H](Cc3ccccc3)C(=O)O)c2)cc1 [Compound 6, (S)-4-[1-(1-Carboxy-2-phenethyl)-6-oxo-5-(4-trifluoromethylbenzoylamino)-1,6-dihydro-pyridin-3-yl]benzoic acid methyl ester] | < 4.00 | 53.6 | > 100
O=C(Nc1cc(-c2cccc3ccccc23)cn([C@@H](COCc2ccccc2)C(=O)O)c1=O)c1ccc(C(F)(F)F)cc1 [Compound 8, (S)-3-Benzyloxy-2-[5-naphthalen-1-yl-2-oxo-3-(4-trifluoromethylbenzoylamino)-2H-pyridin-1-yl]propionic acid] | < 4.00 | 29.5 | 49.2
O=C(Nc1cc(-c2ccc(Oc3ccccc3)cc2)cn([C@@H](COCc2ccccc2)C(=O)O)c1=O)c1ccc(C(F)(F)F)cc1 [Compound 9, (S)-3-Benzyloxy-2-[2-oxo-5-(4-phenoxyphenyl)-3-(4-trifluoromethyl-benzoylamino)-2H-pyridin-1-yl]propionic acid] | < 4.00 | 10.1 | 26.2
O=C(Nc1cc(-c2ccccc2Oc2ccccc2)cn([C@@H](COCc2ccccc2)C(=O)O)c1=O)c1ccc(C(F)(F)F)cc1 [Compound 10, (S)-3-Benzyloxy-2-[2-oxo-5-(2-phenoxyphenyl)-3-(4-trifluoromethyl-benzoylamino)-2H-pyridin-1-yl]propionic acid] | < 4.00 | 27 | 37.4
O=C(Nc1cc(-c2ccc(Cl)c(Cl)c2)cn(C(Cc2ccc(Cl)cc2)C(=O)O)c1=O)c1ccc(C(F)(F)F)cc1 (stereo not drawn) [Compound 20, 3-(4-Chlorophenyl)-2-[5-(3,4-dichloro-phenyl)-2-oxo-3-(4-trifluoromethyl-benzoylamino)-2H-pyridin-1-yl]propionic acid] | < 4.00 | 2.7 | > 100
O=C(Nc1cc(-c2ccc(F)cc2F)cn(C(Cc2ccc(Cl)cc2)C(=O)O)c1=O)c1ccc(C(F)(F)F)cc1 (stereo not drawn) [Compound 21, 3-(4-Chlorophenyl)-2-[5-(2,4-difluorophenyl)-2-oxo-3-(4-trifluoromethyl-benzoylamino)-2H-pyridin-1-yl]propionic acid] | 4.21 | 13.5 | 79
O=C(Nc1cc(-c2cccc(C(F)(F)F)c2)cn(C(Cc2ccc(Cl)cc2)C(=O)O)c1=O)c1ccc(-c2ccccc2)cc1 (stereo not drawn) [Compound 22, 2-[3-[(Biphenyl-4-carbonyl)amino]-2-oxo-5-(3-trifluoromethylphenyl)-2H-pyridin-1-yl]-3-(4-chlorophenyl)propionic acid] | < 4.00 | 3.4 | 38.3
O=C(Nc1cc(-c2cccc3c2sc2ccccc23)cn(C(Cc2ccc(Cl)cc2)C(=O)O)c1=O)c1ccc(C(F)(F)F)cc1 (stereo not drawn) [Compound 24, 3-(4-Chlorophenyl)-2-[5-dibenzothiophen-4-yl-2-oxo-3-(4-trifluoromethyl-benzoylamino)-2H-pyridin-1-yl]propionic acid] | 4.20 | 1.6 | 67.1
O=C(Nc1cc(-c2cccc(O)c2)cn(C(Cc2ccc(Cl)cc2)C(=O)O)c1=O)c1ccc(C(F)(F)F)cc1 (stereo not drawn) [Compound 30, 3-(4-Chlorophenyl)-2-[5-(3-hydroxyphenyl)-2-oxo-3-(4-trifluoromethyl-benzoylamino)-2H-pyridin-1-yl]propionic acid] | < 4.00 | 19.3 | 33.4
O=C(Nc1cc(-c2ccc(Cl)cc2)cn(C(Cc2ccc(Cl)cc2)C(=O)O)c1=O)c1ccc(-c2ccccc2)cc1 (stereo not drawn) [Compound 33, 2-[3-[(Biphenyl-4-carbonyl)amino]-5-(4-chlorophenyl)-2-oxo-2H-pyridin-1-yl]-3(4-chlorophenyl)propionic acid] | < 4.30 | 7.6 | 39
O=C(Nc1cc(-c2ccc(Cl)c(Cl)c2)cn(C(Cc2ccc(Cl)cc2)C(=O)O)c1=O)c1ccc(-c2ccccc2)cc1 (stereo not drawn) [Compound 34, 2-[3-[(Biphenyl-4-carbonyl)amino]-5-(3,4-dichlorophenyl)-2-oxo-2H-pyridin-1-yl]-3-(4-chlorophenyl)propionic acid] | < 4.00 | 8.7 | 24.8
O=C(Nc1cc(-c2ccc(F)cc2)cn(C(Cc2ccc(Cl)cc2)C(=O)O)c1=O)c1ccc(-c2ccccc2)cc1 (stereo not drawn) [Compound 35, 2-[3-[(Biphenyl-4-carbonyl)amino]-5-(4-fluorophenyl)-2-oxo-2H-pyridin-1-yl]-3-(4-chlorophenyl)propionic acid] | 5.12 | 2.3 | 58.4
O=C(Nc1cc(-c2ccc(C(F)(F)F)cc2)cn(C(Cc2ccc(Cl)cc2)C(=O)O)c1=O)c1ccc(-c2ccccc2)cc1 (stereo not drawn) [Compound 38, 2-[3-[(Biphenyl-4-carbonyl)amino]-2-oxo-5-(4-trifluoromethylphenyl)-2H-pyridin-1-yl]-3-(4-chlorophenyl)propionic acid] | 4.67 | 1.2 | 3.1
O=C(Nc1cc(-c2ccc(O)cc2)cn(C(Cc2ccc(Cl)cc2)C(=O)O)c1=O)c1ccc(-c2ccccc2)cc1 (stereo not drawn) [Compound 39, 2-[3-[(Biphenyl-4-carbonyl)amino]-5-(4-hydroxyphenyl)-2-oxo-2H-pyridin-1-yl]-3-(4-chlorophenyl)propionic acid] | 4.09 | 3.6 | > 100
